± gives the uncertainty stated by the source.
Experiment: xn = mol fraction of the nth substance listed

CNc1ccccc1 + CCCCOCCO
viscosity [mPa·s], 101.3 kPa
Settings	x2 = 0.0992	x2 = 0.2016	x2 = 0.3298	x2 = 0.4032	x2 = 0.4978	x2 = 0.6441	x2 = 0.7771	x2 = 0.8935
298 K	2.01 ± 0.053	2.089 ± 0.055	2.213 ± 0.059	2.314 ± 0.061	2.425 ± 0.064	2.589 ± 0.068	2.709 ± 0.072	2.788 ± 0.073
303 K	1.756 ± 0.047	1.811 ± 0.048	1.918 ± 0.051	1.999 ± 0.053	2.094 ± 0.056	2.232 ± 0.059	2.319 ± 0.061	2.395 ± 0.063
308 K	1.567 ± 0.042	1.613 ± 0.043	1.699 ± 0.045	1.753 ± 0.047	1.836 ± 0.049	1.951 ± 0.052	2.049 ± 0.054	2.111 ± 0.056
313 K	1.398 ± 0.038	1.433 ± 0.039	1.502 ± 0.04	1.55 ± 0.041	1.619 ± 0.043	1.718 ± 0.046	1.792 ± 0.048	1.851 ± 0.049
318 K	1.256 ± 0.034	1.302 ± 0.035	1.352 ± 0.036	1.444 ± 0.039	1.495 ± 0.04	1.576 ± 0.042	1.661 ± 0.044	1.696 ± 0.045

CC(C)Cc1ccc(C(C)C(=O)O)cc1 (configuration not stated) + CCCO
viscosity [mPa·s], 100 kPa
Settings	x1 = 0.00242	x1 = 0.00365	x1 = 0.00483	x1 = 0.006021	x1 = 0.007225	x1 = 0.0096	x1 = 0.012
298.15 K	1.95 ± 0.079	1.956 ± 0.08	1.963 ± 0.08	1.971 ± 0.08	1.979 ± 0.081	1.995 ± 0.081	2.014 ± 0.082
308.15 K	1.529 ± 0.062	1.538 ± 0.063	1.548 ± 0.063	1.56 ± 0.064	1.575 ± 0.064	1.605 ± 0.065	1.639 ± 0.067

CC[n+]1ccccc1.N#C[N-]C#N + CCCO
Settings	viscosity [mPa·s]
313.15 K, 100 kPa, x1 = 0.8905	9.945 ± 1

CNc1ccccc1 + CCCO
viscosity [mPa·s], 101.33 kPa
Settings	x1 = 0.1008	x1 = 0.1995	x1 = 0.2999	x1 = 0.4015	x1 = 0.5012	x1 = 0.6016	x1 = 0.7016	x1 = 0.8003	x1 = 0.9016
303.15 K	1.608 ± 0.026	1.532 ± 0.025	1.502 ± 0.025	1.494 ± 0.025	1.502 ± 0.025	1.527 ± 0.025	1.551 ± 0.026	1.61 ± 0.027	1.688 ± 0.028
308.15 K	1.433 ± 0.023	1.37 ± 0.022	1.345 ± 0.022	1.337 ± 0.022	1.347 ± 0.022	1.368 ± 0.023	1.392 ± 0.023	1.446 ± 0.024	1.512 ± 0.025
313.15 K	1.29 ± 0.021	1.235 ± 0.02	1.21 ± 0.02	1.204 ± 0.02	1.219 ± 0.021	1.235 ± 0.021	1.26 ± 0.021	1.306 ± 0.022	1.347 ± 0.023
318.15 K	1.161 ± 0.019	1.116 ± 0.019	1.096 ± 0.018	1.092 ± 0.018	1.097 ± 0.019	1.123 ± 0.019	1.145 ± 0.019	1.188 ± 0.02	1.247 ± 0.021
323.15 K	1.051 ± 0.018	1.01 ± 0.017	1 ± 0.017	0.9995 ± 0.017	1.012 ± 0.017	1.026 ± 0.018	1.047 ± 0.018	1.091 ± 0.019	1.142 ± 0.02

COC(=O)OC + CCCO
101.3 kPa
Settings	viscosity [mPa·s]
293.15 K, x1 = 0.0508	1.875 ± 0.087
293.15 K, x1 = 0.0875	1.683 ± 0.079
293.15 K, x1 = 0.1647	1.362 ± 0.065
293.15 K, x1 = 0.2944	1.024 ± 0.05
293.15 K, x1 = 0.3858	0.885 ± 0.044
293.15 K, x1 = 0.544	0.751 ± 0.039
293.15 K, x1 = 0.6026	0.716 ± 0.037
293.15 K, x1 = 0.7041	0.666 ± 0.035
293.15 K, x1 = 0.89	0.61 ± 0.033
293.15 K, x1 = 0.9015	0.606 ± 0.033
293.15 K, x1 = 0.951	0.608 ± 0.033
298.15 K, x1 = 0.0517	1.675 ± 0.078
298.15 K, x1 = 0.0898	1.493 ± 0.07
298.15 K, x1 = 0.1903	1.147 ± 0.056
298.15 K, x1 = 0.2896	0.936 ± 0.047
298.15 K, x1 = 0.3944	0.803 ± 0.041
298.15 K, x1 = 0.498	0.725 ± 0.038
298.15 K, x1 = 0.5993	0.673 ± 0.035
298.15 K, x1 = 0.7016	0.631 ± 0.034
298.15 K, x1 = 0.8007	0.598 ± 0.032
298.15 K, x1 = 0.8994	0.579 ± 0.031
298.15 K, x1 = 0.949	0.576 ± 0.031
303.15 K, x1 = 0.0728	1.404 ± 0.067
303.15 K, x1 = 0.0829	1.367 ± 0.065
303.15 K, x1 = 0.184	1.072 ± 0.052
303.15 K, x1 = 0.2605	0.919 ± 0.046
303.15 K, x1 = 0.3758	0.769 ± 0.039
303.15 K, x1 = 0.4849	0.685 ± 0.036
303.15 K, x1 = 0.6278	0.613 ± 0.033
303.15 K, x1 = 0.7071	0.594 ± 0.032
303.15 K, x1 = 0.8061	0.569 ± 0.031
303.15 K, x1 = 0.9018	0.554 ± 0.03
303.15 K, x1 = 0.9507	0.542 ± 0.03
313.15 K, x1 = 0.0498	1.198 ± 0.058
313.15 K, x1 = 0.0973	1.066 ± 0.052
313.15 K, x1 = 0.1985	0.86 ± 0.043
313.15 K, x1 = 0.3015	0.721 ± 0.037
313.15 K, x1 = 0.4025	0.639 ± 0.034
313.15 K, x1 = 0.5021	0.584 ± 0.031
313.15 K, x1 = 0.6029	0.546 ± 0.03
313.15 K, x1 = 0.7038	0.521 ± 0.029
313.15 K, x1 = 0.8033	0.5 ± 0.028
313.15 K, x1 = 0.9073	0.489 ± 0.027
313.15 K, x1 = 0.951	0.489 ± 0.027

COCCOCCOC + CCCOC(C)=O
viscosity [mPa·s], 101.3 kPa
Settings	298.15 K	308.15 K	318.15 K
x1 = 0.0296	0.567 ± 0.01	0.499 ± 0.009	0.447 ± 0.008
x1 = 0.076	0.586 ± 0.01	0.515 ± 0.009	0.46 ± 0.008
x1 = 0.0957	0.594 ± 0.01	0.521 ± 0.009	0.467 ± 0.008
x1 = 0.1388	0.611 ± 0.01	0.534 ± 0.009	0.478 ± 0.008
x1 = 0.1878	0.633 ± 0.01	0.551 ± 0.009	0.492 ± 0.008
x1 = 0.2478	0.656 ± 0.01	0.572 ± 0.009	0.508 ± 0.008
x1 = 0.3236	0.688 ± 0.011	0.597 ± 0.009	0.528 ± 0.009
x1 = 0.3893	0.716 ± 0.011	0.619 ± 0.01	0.544 ± 0.009
x1 = 0.4382	0.736 ± 0.011	0.635 ± 0.01	0.557 ± 0.009
x1 = 0.5153	0.769 ± 0.011	0.662 ± 0.01	0.579 ± 0.009
x1 = 0.5945	0.805 ± 0.012	0.691 ± 0.01	0.603 ± 0.009
x1 = 0.6605	0.835 ± 0.012	0.715 ± 0.01	0.626 ± 0.009
x1 = 0.735	0.87 ± 0.012	0.744 ± 0.011	0.648 ± 0.009
x1 = 0.7756	0.888 ± 0.012	0.759 ± 0.011	0.659 ± 0.01
x1 = 0.8324	0.916 ± 0.013	0.779 ± 0.011	0.676 ± 0.01
x1 = 0.8696	0.933 ± 0.013	0.793 ± 0.011	0.687 ± 0.01
x1 = 0.9082	0.954 ± 0.013	0.808 ± 0.011	0.699 ± 0.01
x1 = 0.9425	0.97 ± 0.013	0.822 ± 0.011	0.71 ± 0.01
x1 = 0.9777	0.988 ± 0.013	0.835 ± 0.011	0.722 ± 0.01
x2 = 0.0101	–	–	0.725 ± 0.01
x2 = 0.0103	0.991 ± 0.013	0.84 ± 0.011	–

CCCCCCN + CCN(CC)CC
viscosity [mPa·s], 101.33 kPa
Settings	x2 = 0.1014	x2 = 0.1952	x2 = 0.3807	x2 = 0.4897	x2 = 0.5912	x2 = 0.7898	x2 = 0.8946
303.15 K	0.6552 ± 0.0065	0.6088 ± 0.0063	0.5322 ± 0.0059	0.4934 ± 0.0057	0.4613 ± 0.0055	0.407 ± 0.0053	0.3827 ± 0.0051
313.15 K	0.5654 ± 0.006	0.5278 ± 0.0058	0.4639 ± 0.0055	0.4323 ± 0.0054	0.4027 ± 0.0052	0.3627 ± 0.0051	0.3436 ± 0.005

CCCO + CCO
101 kPa
Settings	viscosity [mPa·s]
293.15 K, x2 = 0.5	1.564 ± 0.019
293.15 K, x2 = 0.75	1.34 ± 0.017
298.15 K, x2 = 0.158	1.759 ± 0.063
298.15 K, x2 = 0.25	1.64 ± 0.02
298.15 K, x2 = 0.303	1.64 ± 0.064
298.15 K, x2 = 0.439	1.522 ± 0.064
298.15 K, x2 = 0.5	1.407 ± 0.017
298.15 K, x2 = 0.566	1.408 ± 0.065
298.15 K, x2 = 0.684	1.319 ± 0.065
298.15 K, x2 = 0.796	1.233 ± 0.066
298.15 K, x2 = 0.902	1.169 ± 0.066
303.15 K, x2 = 0.25	1.47 ± 0.018
303.15 K, x2 = 0.5	1.26 ± 0.016
308.15 K, x2 = 0.25	1.314 ± 0.016
308.15 K, x2 = 0.5	1.139 ± 0.014
308.15 K, x2 = 0.75	0.99 ± 0.012
313.15 K, x2 = 0.25	1.183 ± 0.015
313.15 K, x2 = 0.5	1.032 ± 0.013
313.15 K, x2 = 0.75	0.903 ± 0.011
318.15 K, x2 = 0.5	0.938 ± 0.012
318.15 K, x2 = 0.75	0.824 ± 0.01
323.15 K, x2 = 0.25	0.969 ± 0.012
323.15 K, x2 = 0.5	0.854 ± 0.011
323.15 K, x2 = 0.75	0.755 ± 0.009
